Results on 6 compounds are retold here after ChEMBL document CHEMBL1133460, “Synthesis and biological evaluation of certain alpha,beta-unsaturated ketones and their corresponding fused pyridines as antiviral and cytotoxic agents” (J Med Chem, 2000).

In data set [1] the test system is Human alphaherpesvirus 1. In words: Concentration which caused 50% loss of the monolayer present around the viral plaques in uM. The class given is functional, organism-based.
For data set [2], the system named is Human alphaherpesvirus 1. Description: In vitro antiviral activity against Herpes Simplex-1 virus (HSV-1) expressed as percent reduction in the number of viral plaques. The format is functional. Details: concentration or dose not given beside the values; call rule not given here.
Data set [3] concerns Human alphaherpesvirus 1. Description: Minimum antiviral concentration proved to be lethal to viral population in ug/mL. The class given is functional.
Data set [4] has as its system Human alphaherpesvirus 1. In words: Minimum antiviral concentration proved to be lethal to viral population in uM. The format is functional.
In data set [5] the test system is Human alphaherpesvirus 1. Description: Concentration which caused 50% loss of the monolayer present around the viral plaques in ug/mL. The class given is functional, organism-based.
Data set [6] relates to Panel melanoma (Carcinoma cell lines). Description: In vitro median growth inhibitory concentration against melanoma cell lines. The format is functional. The conditions noted are these: Homo sapiens.
Data set [7] relates to Panel CNS (Carcinoma cell lines). In words: In vitro growth inhibitory concentration against CNS cancer cell lines. The format is functional. The following applies: Homo sapiens.
The test system of data set [8] is Panel renal (Carcinoma cell lines). Description: In vitro growth inhibitory concentration against renal cancer cell lines. The format is functional. The conditions noted are these: Homo sapiens.
For data set [9], the system named is Panel leukemia (Carcinoma cell lines). Description: In vitro growth inhibitory concentration against leukemia tumor cell lines. The format is functional. The conditions noted are these: Homo sapiens.
Data set [10] can be described thus: In vitro median growth inhibitory concentration against colon cancer cell lines. The format is functional. The following applies: Homo sapiens.
For a further data set, the species on record is Homo sapiens. Description: Selectivity ratio between the full panel MG-MID and leukemia subpanel MG-MID was determined. The format is functional.
Data set [11] can be described thus: In vitro growth inhibitory concentration against colon cancer tumor cell lines. The format is functional. The conditions noted are these: Homo sapiens.
Data set [12] deals with Panel renal (Carcinoma cell lines). Description: In vitro median growth inhibitory concentration against renal cancer cell lines. The following applies: Homo sapiens. The format is functional.
Data set [13] deals with NSCLC. In words: In vitro growth inhibitory concentration against non-small-cell lung cancer. The class given is functional. The conditions noted are these: Homo sapiens.
Data set [14] relates to Tumor cell line. Description: Median lethal concentration was estimated. The class given is ADME, cell-based. The following applies: human.
Data set [15] concerns Panel melanoma (Carcinoma cell lines). In words: In vitro growth inhibitory concentration against melanoma cancer cell lines. The class given is functional. The following applies: Homo sapiens.
The subject of data set [16] is Panel CNS (Carcinoma cell lines). In words: In vitro median growth inhibitory concentration against CNS cancer cell lines. The class given is functional. The conditions noted are these: Homo sapiens.
The test system of data set [17] is Ovarian cancer cell line. In words: In vitro growth inhibitory concentration against ovarian cancer cell lines. The following applies: Homo sapiens. The format is functional.
A short description of data set [18]: Full panel mean-graph midpoint (MG-MID).
Data set [19] relates to Panel prostate (Carcinoma cell lines). In words: In vitro median growth inhibitory concentration against prostate cancer cell lines. The conditions noted are these: Homo sapiens. The format is functional.
A short description of data set [20]: Full panel mean-graph midpoint (MG-MID).
In the next data set the test system is MT4. In words: In vitro inhibitory activity against uninfected T4 cells. The following applies: Homo sapiens. The class given is functional, cell-based.
Data set [21] deals with Breast cancer cell line. In words: In vitro median growth inhibitory concentration against breast cancer cell lines. The class given is functional. The following applies: Homo sapiens.
Data set [22] concerns Breast cancer cell line. In words: In vitro growth inhibitory concentration against breast cancer cell lines. The following applies: Homo sapiens. The format is functional.
The test system of data set [23] is Human immunodeficiency virus 1. Description: In vitro effective concentration against HIV-1 cytopathic effect in T4 cells; Inactive. The class given is functional, organism-based.
Data set [24] relates to Panel leukemia (Carcinoma cell lines). Description: In vitro median growth inhibitory conc. against leukemia was estimated. The class given is functional. The conditions noted are these: Homo sapiens.
The test system of data set [25] is Ovarian cancer cell line. Description: In vitro median growth inhibitory concentration against ovarian cancer cell lines. The format is functional. The following applies: Homo sapiens.
Data set [26] deals with Panel prostate (Carcinoma cell lines). Description: In vitro growth inhibitory concentration against prostate cancer cell lines. The class given is functional. The conditions noted are these: Homo sapiens.
The subject of data set [27] is NSCLC. In words: In vitro median growth inhibitory concentration against non-small-cell lung cancer. The format is functional. The following applies: Homo sapiens.
The test system of data set [28] is Tumor cell line. Description: In vitro for median growth inhibitory conc. against leukemia (compounds full panel MG-MID/leukemia subpanel MG-MID). The format is functional. The conditions noted are these: Homo sapiens.
In data set [29] the test system is Tumor cell line. In words: In vitro for median growth inhibitory concentration against prostate cancer cell lines. The class given is functional. The conditions noted are these: Homo sapiens.
Data set [30] relates to Tumor cell line. Description: In vitro for median growth inhibitory concentration against non small lung cancer cell lines. The class given is functional. The following applies: Homo sapiens.
Data set [31] concerns Tumor cell line. In words: In vitro for median growth inhibitory concentration against colon cancer cell lines. The format is functional. The conditions noted are these: Homo sapiens.
Data set [32] relates to Tumor cell line. In words: In vitro for median growth inhibitory concentration against CNS cancer cell lines. The following applies: Homo sapiens. The class given is functional.
Data set [33] relates to Tumor cell line. In words: In vitro for median growth inhibitory concentration against renal cancer cell lines. The class given is functional. The following applies: Homo sapiens.
Data set [34] has as its system Tumor cell line. Description: In vitro for median growth inhibitory concentration against breast cancer cell lines. The format is functional. The conditions noted are these: Homo sapiens.
Data set [35] relates to Tumor cell line. Description: In vitro for median growth inhibitory concentration against ovarian cancer cell lines. The format is functional. The conditions noted are these: Homo sapiens.
Data set [36] concerns Tumor cell line. In words: In vitro for growth inhibitory concentration against non small lung cancer cell lines. The format is functional. The following applies: Homo sapiens.
Data set [37] concerns Tumor cell line. In words: In vitro for median growth inhibitory concentration against melanoma cell lines. The format is functional. The conditions noted are these: Homo sapiens.
The nature of data set [38]: In vitro effective concentration against HIV-1 cytopathic effect in T4 cells. The format is functional, cell-based. The following applies: Homo sapiens. (In general: Cytopathic effects are the visible damage that an infection or toxin causes in cultured cells.)

Structures are written as SMILES. In brackets after ≈: the same amount, converted by molar mass. A value given as a limit tells only on which side of the number the result lay.

What is called IC50 is the point on the concentration scale where inhibition reaches its midpoint. As to `C[C@@]1(CO)[C@H](O)CC[C@@]2(C)[C@H]1CC[C@H]1C[C@@H]3C[C@@]12CC[C@]3(O)CO` [APHIDICOLIN], the IC50 came out at 0.59 µM in the data set on Human alphaherpesvirus 1 [1] and 0.2 µg/mL (≈ 0.591 µM) in the data set on Human alphaherpesvirus 1 [5]. This compound also gave a Reduction in the data set with Human alphaherpesvirus 1 [2] of 100%. Further, the MAC in the data set on Human alphaherpesvirus 1 [3] came to 0.005 µg/mL; in the data set with Human alphaherpesvirus 1 [4] it was 0.02 µM.
As to `CN1C/C(=C\c2ccc(Cl)cc2)C(=O)/C(=C/c2ccc(Cl)cc2)C1`, the IC50 with Human alphaherpesvirus 1 [1] amounted to 0.69 µM; with Human alphaherpesvirus 1 [5] it was 0.2 µg/mL (≈ 0.558 µM). Also, the Reduction with Human alphaherpesvirus 1 [2] is reported as 93%. Besides, the MAC is 0.02 µg/mL with Human alphaherpesvirus 1 [3] and 0.07 µM with Human alphaherpesvirus 1 [4].
As usually defined, the GI50 is the concentration giving 50% growth inhibition. The term TGI denotes the concentration at which net growth stops. Usually LC50 stands for the concentration that kills 50% of the test population. The term EC50 denotes the midpoint of the concentration-response curve. Consider `COc1ccc(/C=C2\CN(C)CC3=C2N=C(S)NC3c2ccc(OC)cc2)cc1` (configuration not stated), for which the concentration for 50% growth inhibition (GI50) in data set [6] was 11.7 µM; in data set [10], 4 µM; in data set [12], 5.9 µM; in data set [16] it was 30 µM; in [19] it was 9.1 µM; in the data set on Breast cancer cell line [21], 11.1 µM. For the same compound, the results for the 50% growth inhibitory concentration (GI50) (in [24]; with Ovarian cancer cell line [25]; in the data set with NSCLC [27]) were 2 µM, 5 µM and 6.5 µM, respectively. Moreover, the TGI in data set [7] worked out at 81.9 µM; in data set [8] it was 97.2 µM; in data set [9] it was 36.3 µM; in data set [11], 76.3 µM; with NSCLC [13], 93.6 µM; in [15], 83.1 µM. Also, the TGI was 76.4 µM in the data set on Ovarian cancer cell line [17], 68.1 µM with Breast cancer cell line [22] and 30.1 µM in [26]. Besides, in the data set listed under Homo sapiens, the Ratio turned out to be 2.5. Moreover, the LC50 with Tumor cell line [14] was 91.8 µM. Also, the MG-MID in [18] came to 56.3 µM; in [20], 4.9 µM. Moreover, half-maximal inhibition with MT4 (IC50) required 6.8 µM. For the same compound, in [23], the EC50 entry is reported as “Not Active”.
Turning to `Cc1ccc(/C=C2\CN(C)CC3=C2OC(N)=C(C#N)C3c2ccc(C)cc2)cc1` (configuration not stated), the total growth inhibition concentration (TGI) was 83.6 µM in [7]; 54.5 µM in data set [8]; 17.9 µM in data set [9]; 43.9 µM in data set [11]; 59.5 µM in data set [15]; 55.7 µM in the data set with Ovarian cancer cell line [17]. For the same compound, the TGI in the data set on Breast cancer cell line [22] worked out at 70.1 µM; with Tumor cell line [34], 30.7 µM; in the data set with Tumor cell line [36], 54.1 µM; in data set [26], 66.2 µM. Also, the GI50 with Tumor cell line [28] worked out at 5.1 µM; in the data set with Tumor cell line [29] it was 29.4 µM; in the data set with Tumor cell line [30], 3.3 µM; with Tumor cell line [31], 16.6 µM; with Tumor cell line [32], 37.7 µM; in the data set with Tumor cell line [33], 18.1 µM. For the same compound, the 50% growth inhibitory concentration (GI50) in the data set with Tumor cell line [35] was 15.5 µM; in the data set on Tumor cell line [37], 26.6 µM. The MG-MID was 16.9 µM in data set [18] and 51.1 µM in [20]. The midpoint of inhibition in the data set on MT4, the IC50, lay at 11.1 µM. In addition, the concentration for a half-maximal effect (EC50) entry in data set [23] is listed as “Not Active”.
In [38], `Cc1cn([C@H]2C[C@H](N=[N+]=[N-])[C@@H](CO)O2)c(=O)[nH]c1=O` [ZIDOVUDINE] yielded an EC50 of 0.0007 µM. Moreover, inhibition in the data set on MT4 was half-maximal at 35.6 µM (IC50).
As for `CN1C/C(=C\c2cccs2)C2=NN(c3ccccc3)C(c3cccs3)C2C1` (configuration not stated), the 50% growth inhibitory concentration (GI50) in data set [6] came to 42.5 µM; in data set [10], 3.8 µM; in [12] it was 65.3 µM; in data set [16], 35.7 µM; in data set [19], 19.3 µM; in the data set on Breast cancer cell line [21] it was 23.6 µM. For the same compound, the GI50 in data set [24] is 2.2 µM; with Ovarian cancer cell line [25] it was 24.2 µM; in the data set with NSCLC [27], 20.8 µM. In addition, the concentration for total growth inhibition (TGI) was over 100 µM in data set [7]; over 100 µM in data set [8]; 52.2 µM in data set [9]; 87.1 µM in data set [11]; over 100 µM in the data set with NSCLC [13]; over 100 µM in data set [15]. Further, the concentration for total growth inhibition (TGI) (in the data set on Ovarian cancer cell line [17]; in the data set on Breast cancer cell line [22]; in data set [26]) was over 100 µM throughout. Also, the Ratio in the data set listed under Homo sapiens was 3.9. The LC50 in the data set with Tumor cell line [14] is 95.8 µM. The MG-MID is 8.5 µM in data set [18] and 72.9 µM in data set [20]. Further, in the data set on MT4, the IC50 came to 9.1 µM. Besides, the EC50 result in data set [23] is on record as “Not Active”.
